Results reported in US8168651B2, “Protein kinase modulators” (Cylene Pharmaceuticals, Inc., priority 2008, dated 2012).
One block for each compound: values may come before it.

Tests used:
Assay in all cases: Standardized radiometric kinase assays, percentage of activity at 0.5 μM;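 note: Read-out is ³³P-labelled substrate protein phosphorylated by each kinase, captured on filters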
[1] = target: each individual kinase of the panel (Homo sapiens, UniProt O00418); conditions: for % Activity: eEF-2K(h)
each individual kinase of the panel (Homo sapiens, UniProt O00418), sequence (O00418 2-725 limits assumed): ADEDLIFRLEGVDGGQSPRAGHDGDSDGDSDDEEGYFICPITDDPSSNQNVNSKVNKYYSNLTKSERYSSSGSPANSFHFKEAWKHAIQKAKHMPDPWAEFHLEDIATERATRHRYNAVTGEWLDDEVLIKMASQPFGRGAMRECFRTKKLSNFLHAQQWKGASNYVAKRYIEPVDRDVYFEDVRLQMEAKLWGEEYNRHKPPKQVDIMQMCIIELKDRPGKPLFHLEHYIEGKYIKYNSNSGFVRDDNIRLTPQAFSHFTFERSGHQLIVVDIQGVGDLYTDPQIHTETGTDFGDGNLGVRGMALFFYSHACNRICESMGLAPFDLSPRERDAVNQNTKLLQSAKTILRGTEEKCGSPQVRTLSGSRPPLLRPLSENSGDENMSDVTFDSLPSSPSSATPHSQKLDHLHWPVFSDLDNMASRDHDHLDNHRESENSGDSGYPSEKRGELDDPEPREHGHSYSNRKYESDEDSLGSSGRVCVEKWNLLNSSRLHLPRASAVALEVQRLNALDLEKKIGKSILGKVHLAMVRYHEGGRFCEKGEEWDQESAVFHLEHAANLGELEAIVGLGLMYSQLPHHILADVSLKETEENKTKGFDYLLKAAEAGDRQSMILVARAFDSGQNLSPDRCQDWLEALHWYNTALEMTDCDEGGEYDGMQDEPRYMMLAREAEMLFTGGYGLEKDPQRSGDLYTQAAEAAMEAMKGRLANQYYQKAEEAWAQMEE

[2] = target: each individual kinase of the panel (Homo sapiens, UniProt Q13043); conditions: for % Activity: MST1(h)
[3] = target: each individual kinase of the panel (Homo sapiens, UniProt P54756); conditions: for % Activity: EphA5(h)
each individual kinase of the panel (Homo sapiens, UniProt P54756), sequence (P54756 25-1037 limits assumed): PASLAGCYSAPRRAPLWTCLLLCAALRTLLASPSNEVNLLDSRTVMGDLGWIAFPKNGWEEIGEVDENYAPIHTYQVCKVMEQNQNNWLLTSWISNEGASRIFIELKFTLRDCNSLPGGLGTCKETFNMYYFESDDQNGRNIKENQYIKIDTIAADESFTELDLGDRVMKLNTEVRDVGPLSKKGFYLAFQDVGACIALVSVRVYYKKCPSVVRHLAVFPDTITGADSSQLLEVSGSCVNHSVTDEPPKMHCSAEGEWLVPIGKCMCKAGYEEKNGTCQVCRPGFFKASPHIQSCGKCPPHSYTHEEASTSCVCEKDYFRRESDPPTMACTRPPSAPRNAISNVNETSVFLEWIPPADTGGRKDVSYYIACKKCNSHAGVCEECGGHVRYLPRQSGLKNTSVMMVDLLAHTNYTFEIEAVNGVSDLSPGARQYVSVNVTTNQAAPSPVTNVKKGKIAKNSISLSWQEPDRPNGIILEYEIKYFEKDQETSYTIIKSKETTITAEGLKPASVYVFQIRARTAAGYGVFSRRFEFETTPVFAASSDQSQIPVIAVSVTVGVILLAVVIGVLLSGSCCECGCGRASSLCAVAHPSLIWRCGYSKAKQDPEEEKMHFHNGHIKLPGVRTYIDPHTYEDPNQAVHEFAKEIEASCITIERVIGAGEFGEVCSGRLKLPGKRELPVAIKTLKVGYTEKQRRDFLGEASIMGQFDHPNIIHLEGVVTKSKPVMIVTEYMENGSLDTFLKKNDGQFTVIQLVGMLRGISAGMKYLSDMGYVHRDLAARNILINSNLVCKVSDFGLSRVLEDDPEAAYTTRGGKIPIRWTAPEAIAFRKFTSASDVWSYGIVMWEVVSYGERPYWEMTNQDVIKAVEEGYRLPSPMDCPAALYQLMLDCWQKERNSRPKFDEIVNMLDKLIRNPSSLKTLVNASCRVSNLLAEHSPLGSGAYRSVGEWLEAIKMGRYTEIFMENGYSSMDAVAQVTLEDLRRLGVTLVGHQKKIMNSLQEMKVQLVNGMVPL

[4] = target: each individual kinase of the panel (Homo sapiens, UniProt Q9P1W9); conditions: for % Activity: Pim-2(h)
[5] = target: each individual kinase of the panel (Homo sapiens, UniProt Q14680); conditions: for % Activity: MELK(h)
[6] = target: each individual kinase of the panel (Homo sapiens, UniProt O43293); conditions: for % Activity: ZIPK(h)
[7] = target: each individual kinase of the panel (Homo sapiens, UniProt P50750); conditions: for % Activity: CDK9/cyclin T1 (h)
[8] = target: each individual kinase of the panel (Homo sapiens, UniProt P35916); conditions: for % Activity: Flt4(h)
[9] = target: each individual kinase of the panel (Homo sapiens, UniProt P00533, L858R); conditions: for % Activity: EGFR(L858R)(h)
[10] = target: each individual kinase of the panel (Homo sapiens, UniProt P19784); conditions: for % Activity: CK2α2(h)
[11] = target: each individual kinase of the panel (Homo sapiens, UniProt Q15418); conditions: for % Activity: Rsk1(h)
[12] = target: each individual kinase of the panel (Homo sapiens, UniProt Q9Y6M4); conditions: for % Activity: CK1γ3(h)
[13] = target: each individual kinase of the panel (Homo sapiens, UniProt Q92630); conditions: for % Activity: DYRK2(h)
[14] = target: each individual kinase of the panel (Homo sapiens, UniProt P07948); conditions: for % Activity: Lyn(h)
each individual kinase of the panel (Homo sapiens, UniProt P07948), sequence (P07948 2-512 limits assumed): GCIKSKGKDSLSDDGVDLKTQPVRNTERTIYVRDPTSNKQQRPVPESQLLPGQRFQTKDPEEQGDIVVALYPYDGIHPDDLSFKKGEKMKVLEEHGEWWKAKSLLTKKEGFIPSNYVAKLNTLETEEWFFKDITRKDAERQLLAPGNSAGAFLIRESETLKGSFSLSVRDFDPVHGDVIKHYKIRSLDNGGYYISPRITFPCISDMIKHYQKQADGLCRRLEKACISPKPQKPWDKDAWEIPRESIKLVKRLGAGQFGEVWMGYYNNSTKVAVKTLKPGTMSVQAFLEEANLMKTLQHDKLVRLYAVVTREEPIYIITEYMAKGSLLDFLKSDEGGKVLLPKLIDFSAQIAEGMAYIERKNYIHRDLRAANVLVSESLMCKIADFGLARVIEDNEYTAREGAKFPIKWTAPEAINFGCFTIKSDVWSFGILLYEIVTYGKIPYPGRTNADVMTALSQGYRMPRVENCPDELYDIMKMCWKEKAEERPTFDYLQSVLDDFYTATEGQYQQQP

[15] = target: each individual kinase of the panel (Homo sapiens, UniProt P06241); conditions: for % Activity: Fyn(h)
each individual kinase of the panel (Homo sapiens, UniProt P06241), sequence (P06241 2-537 limits assumed): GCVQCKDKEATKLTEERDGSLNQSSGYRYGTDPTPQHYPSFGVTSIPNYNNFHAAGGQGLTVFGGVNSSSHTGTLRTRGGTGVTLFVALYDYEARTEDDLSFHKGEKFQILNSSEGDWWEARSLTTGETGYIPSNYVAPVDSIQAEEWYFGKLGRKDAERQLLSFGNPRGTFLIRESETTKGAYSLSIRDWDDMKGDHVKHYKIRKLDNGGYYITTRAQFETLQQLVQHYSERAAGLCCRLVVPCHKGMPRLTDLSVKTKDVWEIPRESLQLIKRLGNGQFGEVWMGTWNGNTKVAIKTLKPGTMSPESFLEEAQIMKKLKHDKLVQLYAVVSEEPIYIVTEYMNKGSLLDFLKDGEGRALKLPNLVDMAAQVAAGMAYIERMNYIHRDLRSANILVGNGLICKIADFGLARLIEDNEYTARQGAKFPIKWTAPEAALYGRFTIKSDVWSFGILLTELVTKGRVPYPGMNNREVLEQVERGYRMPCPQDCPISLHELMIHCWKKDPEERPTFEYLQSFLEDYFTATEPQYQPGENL

[16] = target: each individual kinase of the panel (Homo sapiens, UniProt O15111); conditions: for % Activity: IKKα(h)
[17] = target: each individual kinase of the panel (Homo sapiens, UniProt Q9UEE5); conditions: for % Activity: DRAK1(h)
[18] = target: each individual kinase of the panel (Homo sapiens, UniProt Q9H422); conditions: for % Activity: HIPK3(h)
[19] = target: each individual kinase of the panel (Homo sapiens, UniProt P35968); conditions: for % Activity: KDR(h)
each individual kinase of the panel (Homo sapiens, UniProt P35968), sequence (P35968 20-1356 limits assumed): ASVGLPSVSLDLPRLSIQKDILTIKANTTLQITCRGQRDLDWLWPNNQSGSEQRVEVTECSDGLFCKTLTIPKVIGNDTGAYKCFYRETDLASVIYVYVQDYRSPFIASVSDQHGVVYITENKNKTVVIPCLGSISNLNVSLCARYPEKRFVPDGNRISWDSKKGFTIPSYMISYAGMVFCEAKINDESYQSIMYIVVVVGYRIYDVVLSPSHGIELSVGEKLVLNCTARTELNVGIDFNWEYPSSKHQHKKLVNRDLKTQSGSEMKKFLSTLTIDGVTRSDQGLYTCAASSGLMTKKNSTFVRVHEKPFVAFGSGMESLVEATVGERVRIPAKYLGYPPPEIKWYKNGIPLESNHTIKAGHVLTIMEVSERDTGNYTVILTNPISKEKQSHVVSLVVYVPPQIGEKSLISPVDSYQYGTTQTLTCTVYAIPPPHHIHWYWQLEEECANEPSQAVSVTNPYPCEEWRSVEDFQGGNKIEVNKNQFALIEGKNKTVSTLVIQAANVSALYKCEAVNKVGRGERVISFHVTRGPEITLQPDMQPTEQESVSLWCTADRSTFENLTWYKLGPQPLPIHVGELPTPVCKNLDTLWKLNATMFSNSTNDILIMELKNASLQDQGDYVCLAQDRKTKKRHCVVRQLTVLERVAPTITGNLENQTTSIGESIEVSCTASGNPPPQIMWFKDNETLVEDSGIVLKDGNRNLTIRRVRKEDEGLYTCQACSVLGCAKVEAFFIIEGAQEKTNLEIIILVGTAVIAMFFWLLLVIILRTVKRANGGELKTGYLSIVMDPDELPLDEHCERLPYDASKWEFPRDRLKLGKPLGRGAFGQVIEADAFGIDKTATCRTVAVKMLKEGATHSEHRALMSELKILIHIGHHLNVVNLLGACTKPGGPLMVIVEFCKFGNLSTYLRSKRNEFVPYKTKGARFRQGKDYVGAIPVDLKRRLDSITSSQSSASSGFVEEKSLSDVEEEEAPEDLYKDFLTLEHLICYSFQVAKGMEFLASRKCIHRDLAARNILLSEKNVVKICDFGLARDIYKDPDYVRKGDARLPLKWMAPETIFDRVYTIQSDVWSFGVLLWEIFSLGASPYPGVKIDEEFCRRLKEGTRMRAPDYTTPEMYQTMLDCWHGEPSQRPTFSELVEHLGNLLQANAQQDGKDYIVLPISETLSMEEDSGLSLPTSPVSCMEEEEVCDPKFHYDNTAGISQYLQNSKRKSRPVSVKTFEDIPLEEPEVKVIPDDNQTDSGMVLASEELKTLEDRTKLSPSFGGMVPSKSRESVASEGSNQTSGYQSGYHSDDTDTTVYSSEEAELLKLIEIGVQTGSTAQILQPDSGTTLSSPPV

[20] = target: each individual kinase of the panel (Homo sapiens, UniProt P36888, D835Y); conditions: for % Activity: Flt3(D835Y)(h)
[21] = target: each individual kinase of the panel (Homo sapiens, UniProt Q9BZL6); conditions: for % Activity: PKD2(h)
[22] = target: each individual kinase of the panel (Homo sapiens, UniProt O43318); conditions: for % Activity: TAK1(h)
[23] = target: each individual kinase of the panel (Homo sapiens, UniProt Q8IW41); conditions: for % Activity: PRAK(h)
[24] = target: each individual kinase of the panel (Homo sapiens, UniProt P50613); conditions: for % Activity: CDK7/cyclinH/MAT1(h)
each individual kinase of the panel (Homo sapiens, UniProt P50613), sequence (P50613 2-346 limits assumed): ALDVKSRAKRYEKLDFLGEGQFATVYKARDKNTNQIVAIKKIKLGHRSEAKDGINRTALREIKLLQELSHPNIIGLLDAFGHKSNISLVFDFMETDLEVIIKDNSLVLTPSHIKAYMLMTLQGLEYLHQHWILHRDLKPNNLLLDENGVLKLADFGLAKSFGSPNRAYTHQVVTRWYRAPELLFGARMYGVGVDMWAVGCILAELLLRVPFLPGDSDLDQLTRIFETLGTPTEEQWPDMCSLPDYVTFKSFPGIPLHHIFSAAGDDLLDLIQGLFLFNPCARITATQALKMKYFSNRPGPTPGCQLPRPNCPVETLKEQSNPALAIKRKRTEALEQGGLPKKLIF

[25] = target: each individual kinase of the panel (Homo sapiens, UniProt P23443); conditions: for % Activity: p70S6K(h)
[26] = target: each individual kinase of the panel (Homo sapiens, UniProt P11309); conditions: for % Activity: Pim-1(h)
[27] = target: each individual kinase of the panel (Homo sapiens, UniProt O60674); conditions: for % Activity: JAK2(h)
[28] = target: each individual kinase of the panel (Homo sapiens, UniProt P00533, L858R/T790M); conditions: for % Activity: EGFR(T790M,L858R)(h)

- % Activity [1]: 111%
- % Activity [2]: 44%
- % Activity [3]: 95%
- % Activity [4]: 2%
- % Activity [5]: 13%
- % Activity [6]: 100%
- % Activity [7]: 37%
- % Activity [8]: 17%
- % Activity [9]: 56%
- % Activity [10]: 73%
- % Activity [11]: 6%
- % Activity [12]: 21%
- % Activity [13]: −4%
- % Activity [14]: 75%
- % Activity [15]: 49%
- % Activity [16]: 108%
- % Activity [17]: 75%
- % Activity [18]: 2%
- % Activity [19]: 43%
- % Activity [20]: 24%
- % Activity [21]: 86%
- % Activity [22]: 28%
- % Activity [23]: 97%
- % Activity [24]: 50%
- % Activity [25]: 77%
- % Activity [26]: 1%
- % Activity [27]: 39%
- % Activity [28]: 20%
SMILES: Clc1ccccc1Nc1nc2c(-c3nnc[nH]3)cccc2c2cnccc12 [A]

- % Activity [1]: 93%
- % Activity [2]: 80%
- % Activity [3]: 93%
- % Activity [4]: 46%
- % Activity [5]: 14%
- % Activity [6]: 19%
- % Activity [7]: 18%
- % Activity [8]: 41%
- % Activity [9]: 56%
- % Activity [10]: 51%
- % Activity [11]: 21%
- % Activity [12]: 38%
- % Activity [13]: 5%
- % Activity [14]: 75%
- % Activity [15]: 49%
- % Activity [16]: 99%
- % Activity [17]: 15%
- % Activity [18]: −1%
- % Activity [19]: 75%
- % Activity [20]: 2%
- % Activity [21]: 86%
- % Activity [22]: 79%
- % Activity [23]: 84%
- % Activity [24]: 17%
- % Activity [25]: 87%
- % Activity [26]: 9%
- % Activity [27]: 55%
- % Activity [28]: 59%
SMILES: NC(=O)c1cccc2c1nc(Nc1cccc(Cl)c1)c1ccncc12 [B]

- eEF−2K(h) percentage of activity [1]: −6%
- MST1 percentage of activity [2]: 4%
- EPHA5 percentage of activity [3]: −25%
- PIM2 percentage of activity [4]: 25%
- MELK percentage of activity [5]: 51%
- DAPK3 percentage of activity [6]: 88%
- CDK9/cyclin T1 percentage of activity [7]: 0%
- FLT4 percentage of activity [8]: 101%
- RPS6KA1 percentage of activity [11]: 22%
- CK1 gamma 3 percentage of activity [12]: 0%
- DYRK2 percentage of activity [13]: 50%
- FYN percentage of activity [15]: −14%
- IKK alpha percentage of activity [16]: −1%
- DRAK1 percentage of activity [17]: 38%
- HIPK3 percentage of activity [18]: 90%
- VEGFR2 percentage of activity [19]: 33%
- FLT3(D835Y) percentage of activity [20]: 83%
- PRKd_nM2 percentage of activity [21]: −7%
- TAK1 percentage of activity [22]: −1%
- MAPKAPK5 percentage of activity [23]: 7%
- CDK7/cyclinH/MAT1 percentage of activity [24]: 23%
- p70S6K percentage of activity [25]: 20%
- PIM1 percentage of activity [26]: 73%
- JAK2 percentage of activity [27]: 1%
SMILES: C#Cc1cccc(Nc2nc3cc(C(=O)O)ccc3c3cncnc23)c1 [drawing 1135]

- eEF−2K(h) percentage of activity [1]: −8%
- MST1 percentage of activity [2]: −3%
- EPHA5 percentage of activity [3]: 12%
- PIM2 percentage of activity [4]: 6%
- MELK percentage of activity [5]: 77%
- DAPK3 percentage of activity [6]: 87%
- CDK9/cyclin T1 percentage of activity [7]: 27%
- FLT4 percentage of activity [8]: 101%
- EGFR(L858R) percentage of activity [9]: 24%
- RPS6KA1 percentage of activity [11]: 54%
- CK1 gamma 3 percentage of activity [12]: 32%
- DYRK2 percentage of activity [13]: 55%
- LYN percentage of activity [14]: 20%
- FYN percentage of activity [15]: 18%
- IKK alpha percentage of activity [16]: 3%
- DRAK1 percentage of activity [17]: 65%
- HIPK3 percentage of activity [18]: 91%
- VEGFR2 percentage of activity [19]: 55%
- FLT3(D835Y) percentage of activity [20]: 97%
- PRKd_nM2 percentage of activity [21]: 0%
- TAK1 percentage of activity [22]: 6%
- MAPKAPK5 percentage of activity [23]: 22%
- CDK7/cyclinH/MAT1 percentage of activity [24]: 36%
- p70S6K percentage of activity [25]: 36%
- PIM1 percentage of activity [26]: 75%
- JAK2 percentage of activity [27]: 38%
- EGFR(T790M, L858R) percentage of activity [28]: 26%
SMILES: C#Cc1cccc(Nc2nc3cc(C(=O)O)ccc3c3cnccc23)c1 [drawing 1137]

- eEF−2K(h) percentage of activity [1]: −3%
- MST1 percentage of activity [2]: 15%
- EPHA5 percentage of activity [3]: 8%
- MELK percentage of activity [5]: 73%
- DAPK3 percentage of activity [6]: 34%
- CDK9/cyclin T1 percentage of activity [7]: 45%
- FLT4 percentage of activity [8]: 40%
- EGFR(L858R) percentage of activity [9]: 63%
- CK2 alpha 2 percentage of activity [10]: 96%
- RPS6KA1 percentage of activity [11]: 55%
- CK1 gamma 3 percentage of activity [12]: −5%
- DYRK2 percentage of activity [13]: 82%
- LYN percentage of activity [14]: 16%
- FYN percentage of activity [15]: 32%
- IKK alpha percentage of activity [16]: −13%
- DRAK1 percentage of activity [17]: −5%
- HIPK3 percentage of activity [18]: 57%
- VEGFR2 percentage of activity [19]: 15%
- FLT3(D835Y) percentage of activity [20]: 99%
- PRKd_nM2 percentage of activity [21]: 25%
- TAK1 percentage of activity [22]: 12%
- MAPKAPK5 percentage of activity [23]: 22%
- CDK7/cyclinH/MAT1 percentage of activity [24]: 57%
- p70S6K percentage of activity [25]: 8%
- PIM1 percentage of activity [26]: 18%
- JAK2 percentage of activity [27]: −4%
- EGFR(T790M, L858R) percentage of activity [28]: 48%
SMILES: NC(=O)c1ccc2c(c1)nc(Nc1cccc(Cl)c1)c1ccncc12 [drawing 1138]
